Test results published in ChEMBL document CHEMBL1201862, “PubChem BioAssay data set” (2004).
Calls of active or inactive are those of the source.

Experiments:
Cytochrome P450 2D6 = Cytochrome P450 2D6 (Homo sapiens, UniProt P10635);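 further: CYP2D6 member of a cytochrome P450 panel assay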
Cytochrome P450 2C19 = Cytochrome P450 2C19 (Homo sapiens, UniProt P33261); experiment: Cytochrome panel assay with activity outcomes. Panel member name: p450-cyp2c19 Compounds with AC50 equal or less than 10 uM are considered active; assay type: functional
Sequence of Cytochrome P450 2C19 (P33261 whole entry): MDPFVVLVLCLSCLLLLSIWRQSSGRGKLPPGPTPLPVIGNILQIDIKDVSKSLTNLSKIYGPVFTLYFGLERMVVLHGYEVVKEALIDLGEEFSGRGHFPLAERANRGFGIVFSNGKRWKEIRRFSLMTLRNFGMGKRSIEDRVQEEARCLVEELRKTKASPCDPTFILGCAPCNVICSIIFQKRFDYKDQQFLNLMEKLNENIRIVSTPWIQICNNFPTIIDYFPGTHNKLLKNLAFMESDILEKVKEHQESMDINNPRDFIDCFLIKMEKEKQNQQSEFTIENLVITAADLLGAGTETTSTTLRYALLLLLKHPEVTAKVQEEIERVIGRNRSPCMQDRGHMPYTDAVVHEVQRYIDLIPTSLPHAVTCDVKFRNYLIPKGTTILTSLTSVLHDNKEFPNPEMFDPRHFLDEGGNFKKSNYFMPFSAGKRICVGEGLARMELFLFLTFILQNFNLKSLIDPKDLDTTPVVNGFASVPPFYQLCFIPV

[1] = biological target: Intestinal-type alkaline phosphatase (Mus musculus, UniProt P24822); experiment: PubChem AID 488874; assay type: functional
Sequence of Intestinal-type alkaline phosphatase (Mus musculus, UniProt P24822) (P24822 whole entry): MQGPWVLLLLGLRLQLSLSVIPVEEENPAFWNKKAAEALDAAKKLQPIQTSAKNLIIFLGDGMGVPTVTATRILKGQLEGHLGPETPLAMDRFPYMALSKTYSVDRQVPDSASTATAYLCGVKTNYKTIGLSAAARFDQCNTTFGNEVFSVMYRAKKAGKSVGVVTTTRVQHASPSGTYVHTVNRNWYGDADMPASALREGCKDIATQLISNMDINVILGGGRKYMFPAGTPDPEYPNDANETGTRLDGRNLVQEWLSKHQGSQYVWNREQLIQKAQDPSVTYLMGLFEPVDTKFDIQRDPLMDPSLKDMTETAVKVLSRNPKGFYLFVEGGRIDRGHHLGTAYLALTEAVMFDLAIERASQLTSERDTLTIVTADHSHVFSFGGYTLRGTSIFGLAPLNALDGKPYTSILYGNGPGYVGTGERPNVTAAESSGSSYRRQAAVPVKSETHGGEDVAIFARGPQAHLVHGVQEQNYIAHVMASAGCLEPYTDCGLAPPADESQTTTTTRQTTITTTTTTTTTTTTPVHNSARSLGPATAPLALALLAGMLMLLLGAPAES

[2] = biological target: T1, Intestinal-type alkaline phosphatase (Homo sapiens, UniProt P09923); experiment: human IAP activators, dose response, biochemical, luminescent, uHTS hits, set 2 (AID 488817); assay type: functional;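 further: potency of activators that raise enzyme activity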
T1 sequence (P09923 whole entry): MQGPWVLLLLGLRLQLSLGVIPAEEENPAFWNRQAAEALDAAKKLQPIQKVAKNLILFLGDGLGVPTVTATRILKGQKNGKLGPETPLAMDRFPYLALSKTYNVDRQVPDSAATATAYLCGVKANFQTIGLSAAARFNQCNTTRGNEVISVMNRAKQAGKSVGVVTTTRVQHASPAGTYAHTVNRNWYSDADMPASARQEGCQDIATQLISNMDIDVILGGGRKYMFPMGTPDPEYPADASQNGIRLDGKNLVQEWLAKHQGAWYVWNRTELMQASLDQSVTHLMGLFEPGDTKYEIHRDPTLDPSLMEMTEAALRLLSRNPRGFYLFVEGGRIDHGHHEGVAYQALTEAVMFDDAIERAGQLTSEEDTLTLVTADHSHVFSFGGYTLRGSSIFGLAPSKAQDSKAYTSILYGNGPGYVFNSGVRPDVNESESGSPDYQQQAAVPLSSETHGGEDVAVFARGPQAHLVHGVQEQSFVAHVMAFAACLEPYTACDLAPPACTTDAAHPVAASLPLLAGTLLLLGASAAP

[3] = biological target: T1, Intestinal-type alkaline phosphatase; experiment: human intestinal alkaline phosphatase activators, dose response, biochemical, luminescence, uHTS hits (AID 463120); assay type: functional
[4] = biological target: T2, Zinc finger protein mex-5 (Caenorhabditis elegans, UniProt Q9XUB2); experiment: MEX-5/TCR-2 RNA interaction inhibitors, dose response, biochemical, C. elegans, fluorescence polarization (AID 1960)
T2 sequence (Q9XUB2 whole entry): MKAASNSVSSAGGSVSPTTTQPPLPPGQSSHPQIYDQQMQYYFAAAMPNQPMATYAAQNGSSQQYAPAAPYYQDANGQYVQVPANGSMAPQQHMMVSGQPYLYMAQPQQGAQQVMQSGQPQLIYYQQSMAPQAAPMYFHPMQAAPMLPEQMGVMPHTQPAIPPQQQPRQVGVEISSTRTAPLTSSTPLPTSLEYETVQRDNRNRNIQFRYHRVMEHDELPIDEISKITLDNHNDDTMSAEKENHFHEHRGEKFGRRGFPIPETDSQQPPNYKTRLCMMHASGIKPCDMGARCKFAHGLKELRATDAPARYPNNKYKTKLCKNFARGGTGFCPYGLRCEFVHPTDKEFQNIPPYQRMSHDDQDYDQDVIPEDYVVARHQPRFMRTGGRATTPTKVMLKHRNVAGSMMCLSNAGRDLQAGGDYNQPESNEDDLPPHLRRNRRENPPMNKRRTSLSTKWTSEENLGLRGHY

[5] = biological target: T3, Alkaline phosphatase, tissue-nonspecific isozyme (Homo sapiens, UniProt P05186); experiment: TNAP enzyme activators, dose response, selectivity assay for human IAP activator project, biochemical, TNAP isozyme, human IAP uHTS hits (AID 488886); assay type: functional;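 further: potency of compounds raising TNAP activity as a selectivity check on IAP activators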
T3 sequence (P05186 whole entry): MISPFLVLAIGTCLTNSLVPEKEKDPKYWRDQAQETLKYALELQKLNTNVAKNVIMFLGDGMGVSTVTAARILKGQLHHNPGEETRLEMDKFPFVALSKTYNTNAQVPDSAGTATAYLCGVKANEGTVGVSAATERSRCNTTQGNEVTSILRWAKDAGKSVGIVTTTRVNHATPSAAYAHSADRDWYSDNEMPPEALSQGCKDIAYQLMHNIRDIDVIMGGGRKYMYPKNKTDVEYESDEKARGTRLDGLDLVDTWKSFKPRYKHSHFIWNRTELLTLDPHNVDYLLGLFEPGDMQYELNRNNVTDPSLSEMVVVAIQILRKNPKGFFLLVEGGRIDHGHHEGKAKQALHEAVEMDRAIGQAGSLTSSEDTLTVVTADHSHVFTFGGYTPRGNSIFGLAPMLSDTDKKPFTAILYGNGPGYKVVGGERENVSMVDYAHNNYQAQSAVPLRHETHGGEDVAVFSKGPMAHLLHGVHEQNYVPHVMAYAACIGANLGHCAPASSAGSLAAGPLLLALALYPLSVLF

[6] = biological target: T4, RNA-binding protein pos-1 (Caenorhabditis elegans, UniProt G5EF15); experiment: inhibitors of POS-1/mex-3 RNA binding, dose response, biochemical, fluorescence polarization (AID 1964);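 further: purified POS-1 fused to maltose binding protein made in E. coli; potency of compounds blocking POS-1 binding to fluorescent RNA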
T4 sequence (G5EF15 whole entry): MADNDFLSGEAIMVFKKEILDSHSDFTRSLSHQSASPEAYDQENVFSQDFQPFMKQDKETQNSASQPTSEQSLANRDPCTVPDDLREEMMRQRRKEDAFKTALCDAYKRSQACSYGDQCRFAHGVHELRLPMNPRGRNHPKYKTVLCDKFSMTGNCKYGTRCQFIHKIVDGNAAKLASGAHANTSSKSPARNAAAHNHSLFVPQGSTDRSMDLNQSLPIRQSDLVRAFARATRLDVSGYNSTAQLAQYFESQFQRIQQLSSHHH

[7] = Vero E6 cell cytotoxicity, dose response, cytotoxicity control for non-replicating M. tuberculosis project, secondary assay (AID 492998); assay type: functional, VeroE6; conditions: Vero C1008
[8] = biological target: T5, Polyadenylate-binding protein 1 (Homo sapiens, UniProt P11940); experiment: PABP1 MLLE–PAM2 interaction inhibitors, dose response, miRNA deadenylation inhibitor project, biochemical, fluorescence polarization, Cy5-PAM2 peptide, secondary (AID 602260); assay type: functional; conditions: read-out: IC50_Mean
T5 sequence (P11940 whole entry): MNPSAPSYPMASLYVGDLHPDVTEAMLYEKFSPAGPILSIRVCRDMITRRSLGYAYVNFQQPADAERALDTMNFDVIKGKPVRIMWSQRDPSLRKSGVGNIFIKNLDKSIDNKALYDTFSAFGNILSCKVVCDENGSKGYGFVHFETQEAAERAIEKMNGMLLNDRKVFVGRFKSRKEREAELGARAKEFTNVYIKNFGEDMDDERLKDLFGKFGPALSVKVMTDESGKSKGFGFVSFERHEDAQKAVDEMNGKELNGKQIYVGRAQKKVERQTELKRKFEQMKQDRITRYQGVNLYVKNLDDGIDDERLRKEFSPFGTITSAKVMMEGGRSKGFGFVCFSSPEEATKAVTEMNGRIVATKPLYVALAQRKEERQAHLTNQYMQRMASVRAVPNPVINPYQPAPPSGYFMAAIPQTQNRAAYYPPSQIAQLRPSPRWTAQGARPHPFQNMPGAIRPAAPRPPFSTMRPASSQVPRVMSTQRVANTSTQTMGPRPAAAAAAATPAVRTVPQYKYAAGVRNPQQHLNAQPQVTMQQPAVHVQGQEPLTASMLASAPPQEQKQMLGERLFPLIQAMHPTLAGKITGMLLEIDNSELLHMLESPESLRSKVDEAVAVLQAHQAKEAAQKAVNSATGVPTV

Hexokinase = Hexokinase (Trypanosoma brucei, UniProt Q38C41); experiment: Confirmation assay for inhibitors of Trypanosoma brucei hexokinase 1-Analogue-first series. [Related pubchem assays (depositor defined):AID1430, AID1632, AID2516, AID2560, AID2579, AID2600, AID449725, AID492951]; assay type: functional
[9] = biological target: Glucose-6-phosphate 1-dehydrogenase (Homo sapiens, UniProt P11413); experiment: human G6PD enzyme inhibitors, dose response, selectivity assay for P. falciparum G6PD inhibitor project, biochemical, fluorescence (AID 504792); assay type: functional
Sequence of Glucose-6-phosphate 1-dehydrogenase (P11413 whole entry): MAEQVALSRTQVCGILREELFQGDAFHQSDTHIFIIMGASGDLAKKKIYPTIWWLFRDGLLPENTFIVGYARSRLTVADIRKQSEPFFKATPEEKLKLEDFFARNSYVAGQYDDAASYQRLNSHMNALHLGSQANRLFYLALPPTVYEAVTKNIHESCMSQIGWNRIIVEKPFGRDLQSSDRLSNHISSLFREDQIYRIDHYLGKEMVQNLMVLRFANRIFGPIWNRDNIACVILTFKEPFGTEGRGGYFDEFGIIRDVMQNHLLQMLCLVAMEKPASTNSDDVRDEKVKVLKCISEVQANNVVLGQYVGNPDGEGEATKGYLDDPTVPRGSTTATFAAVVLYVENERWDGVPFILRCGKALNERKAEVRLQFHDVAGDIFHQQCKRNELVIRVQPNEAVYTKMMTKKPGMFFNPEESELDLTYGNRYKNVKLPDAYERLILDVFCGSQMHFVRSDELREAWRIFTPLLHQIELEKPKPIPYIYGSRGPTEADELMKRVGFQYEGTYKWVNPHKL

[10] = biological target: Phosphoethanolamine/phosphocholine phosphatase (Homo sapiens, UniProt Q8TCT1); experiment: SAR assay for compounds that inhibit PHOSPHO1. [Related pubchem assays (depositor defined):AID1545, AID1565, AID1574]
Sequence of Phosphoethanolamine/phosphocholine phosphatase (Q8TCT1 whole entry): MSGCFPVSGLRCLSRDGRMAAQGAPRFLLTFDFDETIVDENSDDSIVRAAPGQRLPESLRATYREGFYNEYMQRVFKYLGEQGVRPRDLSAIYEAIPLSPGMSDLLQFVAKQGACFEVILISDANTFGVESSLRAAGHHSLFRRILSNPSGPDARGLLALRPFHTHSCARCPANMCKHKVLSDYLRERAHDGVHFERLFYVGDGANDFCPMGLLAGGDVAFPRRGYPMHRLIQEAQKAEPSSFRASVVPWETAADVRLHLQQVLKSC

[11] = biological target: T6, Mannose-6-phosphate isomerase (Homo sapiens, UniProt P34949); experiment: Confirmation of compounds inhibiting phosphomannose isomerase (PMI) via a fluorescence intensity assay using a high concentration of mannose 6-phosphate. [Related pubchem assays (depositor defined):AID1209, AID1220, AID1545, AID1553, AID1620]
T6 sequence (P34949 whole entry): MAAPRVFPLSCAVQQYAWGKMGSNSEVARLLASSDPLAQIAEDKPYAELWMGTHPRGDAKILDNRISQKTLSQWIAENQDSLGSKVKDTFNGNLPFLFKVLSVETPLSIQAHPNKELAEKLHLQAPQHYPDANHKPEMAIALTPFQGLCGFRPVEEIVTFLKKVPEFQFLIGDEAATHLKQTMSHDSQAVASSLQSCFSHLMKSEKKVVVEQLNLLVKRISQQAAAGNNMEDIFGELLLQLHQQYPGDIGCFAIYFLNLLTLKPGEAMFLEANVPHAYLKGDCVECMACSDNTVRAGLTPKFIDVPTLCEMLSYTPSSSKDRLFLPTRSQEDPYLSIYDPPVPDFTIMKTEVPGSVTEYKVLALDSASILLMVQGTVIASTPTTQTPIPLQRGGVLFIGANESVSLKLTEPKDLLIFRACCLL

Beta Lactamase = Beta Lactamase (Pseudomonas aeruginosa, UniProt Q932Y6); experiment: beta-lactamase reporter inhibitor potency, dose response, artefact control for NOD2-RIPK2 interaction inhibitor project, BLA reporter cells, FRET fluorescence (AID 651552); assay type: functional, cell-based
Sequence of Beta Lactamase (Q932Y6 whole entry): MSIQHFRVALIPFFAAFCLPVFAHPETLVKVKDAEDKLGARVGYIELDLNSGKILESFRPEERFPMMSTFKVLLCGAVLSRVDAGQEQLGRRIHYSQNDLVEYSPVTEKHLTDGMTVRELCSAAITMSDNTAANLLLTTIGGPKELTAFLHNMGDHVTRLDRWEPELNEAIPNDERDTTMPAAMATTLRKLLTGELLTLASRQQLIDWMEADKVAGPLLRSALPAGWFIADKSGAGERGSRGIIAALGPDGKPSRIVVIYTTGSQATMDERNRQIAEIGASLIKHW

[12] = biological target: DNA dC->dU-editing enzyme APOBEC-3G (Homo sapiens, UniProt Q9HC16); experiment: Dose Response confirmation of small molecule APOBEC3G DNA Deaminase Inhibitors via a fluorescence-based single-stranded DNA deaminase assay. [Related pubchem assays (depositor defined):AID493012, AID493028]; assay type: functional
Sequence of DNA dC->dU-editing enzyme APOBEC-3G (Q9HC16 whole entry): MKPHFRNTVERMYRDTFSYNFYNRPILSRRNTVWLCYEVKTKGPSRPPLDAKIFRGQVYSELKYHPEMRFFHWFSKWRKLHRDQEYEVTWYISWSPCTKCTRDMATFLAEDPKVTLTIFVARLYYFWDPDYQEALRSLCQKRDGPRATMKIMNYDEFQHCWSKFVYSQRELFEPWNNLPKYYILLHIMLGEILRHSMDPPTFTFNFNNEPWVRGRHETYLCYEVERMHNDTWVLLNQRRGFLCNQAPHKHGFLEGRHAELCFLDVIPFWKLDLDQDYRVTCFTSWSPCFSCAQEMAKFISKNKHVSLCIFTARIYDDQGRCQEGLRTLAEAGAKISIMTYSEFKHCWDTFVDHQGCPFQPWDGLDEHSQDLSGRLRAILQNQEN

[13] = biological target: Eukaryotic translation initiation factor 4E (Mus musculus, UniProt P63073); experiment: eIF4E–eIF4G protein interaction inhibitors, dose response, biochemical, TR-FRET (AID 855); assay type: functional;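 further: potency for disrupting eIF4E binding to eIF4GI seen as loss of FRET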
Sequence of Eukaryotic translation initiation factor 4E (P63073 whole entry): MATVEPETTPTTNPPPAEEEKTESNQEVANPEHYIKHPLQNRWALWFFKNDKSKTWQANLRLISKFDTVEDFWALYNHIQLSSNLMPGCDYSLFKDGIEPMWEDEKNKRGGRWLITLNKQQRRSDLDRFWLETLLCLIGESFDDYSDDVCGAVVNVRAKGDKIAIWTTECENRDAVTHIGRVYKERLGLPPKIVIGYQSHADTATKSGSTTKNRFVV

[14] = biological target: T7, Mitochondrial peptide methionine sulfoxide reductase (Bos taurus, UniProt P54149); experiment: Absorbance-based biochemical high throughput dose response assay for activators of Methionine sulfoxide reductase A (MsrA).; assay type: functional
T7 sequence (P54149 whole entry): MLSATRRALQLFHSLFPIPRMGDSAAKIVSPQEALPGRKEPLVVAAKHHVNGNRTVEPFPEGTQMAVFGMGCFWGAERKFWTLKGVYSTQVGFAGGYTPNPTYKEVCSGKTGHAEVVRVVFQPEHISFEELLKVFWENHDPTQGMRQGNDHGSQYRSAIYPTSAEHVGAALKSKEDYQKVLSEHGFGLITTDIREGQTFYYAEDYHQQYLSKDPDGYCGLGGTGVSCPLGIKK

[15] = THP-1 cell cytotoxicity, dose response, cytotoxicity control for non-replicating M. tuberculosis project (AID 489025); assay type: functional
[16] = growth suppression of PTEN-null colon cells, dose response, cell-based, HCT116 PTEN knockout (AID 1047); assay type: functional;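 further: HCT116 colon tumor cells with PTEN knocked out; cells exposed to compound for 60 hours before readout; potency for loss of cell viability measured by luminescence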
[17] = system: Streptococcus sp. 'group A'; experiment: growth inhibition of control SK(-) GAS strain, dose response, counter-screen for streptokinase expression inhibitor project, luminescence, kanamycin, BacTiterGlo, confirmation (AID 1900); assay type: functional, organism-based
Streptococcus = experiment: Group A Streptococcus viability loss, dose response, counter-screen for streptokinase expression inhibitor project, luminescence, BacTiterGlo (AID 1915); assay type: functional, organism-based;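 further: potency for reduction of bacterial viability or growth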
Streptokinase A = biological target: T8, Streptokinase A (Streptococcus pyogenes serotype M1, UniProt P10520); experiment: S. pyogenes streptokinase expression inhibitors, potency, dose response, plasminogen activation absorbance, OD405 (AID 1914); assay type: functional, Streptococcus pyogenes M1 GAS;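 further: secreted streptokinase activity via plasminogen activation per viability signal from cell pellet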
T8 sequence (P10520 whole entry): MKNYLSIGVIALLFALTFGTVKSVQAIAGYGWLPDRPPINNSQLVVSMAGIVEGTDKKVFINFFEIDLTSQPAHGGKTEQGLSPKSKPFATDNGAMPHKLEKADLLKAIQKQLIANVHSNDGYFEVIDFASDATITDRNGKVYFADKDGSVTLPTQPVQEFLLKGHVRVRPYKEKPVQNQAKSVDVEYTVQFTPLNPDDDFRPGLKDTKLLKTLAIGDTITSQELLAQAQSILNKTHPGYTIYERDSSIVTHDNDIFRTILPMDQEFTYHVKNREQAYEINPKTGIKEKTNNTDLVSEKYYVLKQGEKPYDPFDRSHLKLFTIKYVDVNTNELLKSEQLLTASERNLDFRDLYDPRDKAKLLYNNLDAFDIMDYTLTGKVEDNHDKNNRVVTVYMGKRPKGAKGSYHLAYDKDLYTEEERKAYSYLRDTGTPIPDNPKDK

[18] = biological target: DNA dC->dU-editing enzyme APOBEC-3A (Homo sapiens, UniProt P31941); experiment: APOBEC3A DNA deaminase inhibitors, dose response, biochemical (AID 504722); assay type: functional
Sequence of DNA dC->dU-editing enzyme APOBEC-3A (P31941 whole entry, the tested form may be a part): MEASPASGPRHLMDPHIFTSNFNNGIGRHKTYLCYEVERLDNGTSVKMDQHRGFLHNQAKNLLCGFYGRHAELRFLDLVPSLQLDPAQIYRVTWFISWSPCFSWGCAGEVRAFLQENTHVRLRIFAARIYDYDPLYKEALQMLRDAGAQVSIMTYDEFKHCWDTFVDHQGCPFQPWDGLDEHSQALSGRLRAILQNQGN

[19] = Fluorescence-based cell-based high throughput dose response assay for inhibitors of the interaction of nucleotide-binding oligomerization domain containing 2 (NOD2) and the receptor-interacting serine-threonine kinase 2 (RIPK2).; assay type: functional; conditions: Homo sapiens
[20] = inhibitors of intracellular T. cruzi replication, confirmation, NIH3T3 host cells, beta-gal luminescence (AID 2044); assay type: functional, cell-based;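 further: intracellular parasites grown in NIH/3T3 mouse fibroblasts as host cells; luminescent beta-galactosidase reporter signal from transgenic T. cruzi replicating inside host cells; inhibitors lower the luminescence signal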
cells = assay type: functional
[21] = biological target: T6, Mannose-6-phosphate isomerase; experiment: PMI enzyme inhibitors, confirmation, biochemical, fluorescence intensity (AID 1535)
[22] = biological target: Heat shock protein HSP 90-alpha (Homo sapiens, UniProt P07900); assay type: functional, organism-based
[23] = biological target: T5, Polyadenylate-binding protein 1; experiment: PABP1 MLLE–PAM2 binding inhibitor potency, dose response, biochemical, fluorescence polarization, FITC-PAM2 peptide (AID 602259); assay type: functional; conditions: read-out: IC50_Mean
[24] = growth suppression of beta-catenin-knockout colon cells, dose response, cell-based, HCT116, human colon tumor (AID 1045); assay type: functional;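 further: HCT116 colon tumor cells with beta catenin knocked out; cells exposed to compound for 60 hours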

Sequence of Cytochrome P450 2D6 (P10635 whole entry): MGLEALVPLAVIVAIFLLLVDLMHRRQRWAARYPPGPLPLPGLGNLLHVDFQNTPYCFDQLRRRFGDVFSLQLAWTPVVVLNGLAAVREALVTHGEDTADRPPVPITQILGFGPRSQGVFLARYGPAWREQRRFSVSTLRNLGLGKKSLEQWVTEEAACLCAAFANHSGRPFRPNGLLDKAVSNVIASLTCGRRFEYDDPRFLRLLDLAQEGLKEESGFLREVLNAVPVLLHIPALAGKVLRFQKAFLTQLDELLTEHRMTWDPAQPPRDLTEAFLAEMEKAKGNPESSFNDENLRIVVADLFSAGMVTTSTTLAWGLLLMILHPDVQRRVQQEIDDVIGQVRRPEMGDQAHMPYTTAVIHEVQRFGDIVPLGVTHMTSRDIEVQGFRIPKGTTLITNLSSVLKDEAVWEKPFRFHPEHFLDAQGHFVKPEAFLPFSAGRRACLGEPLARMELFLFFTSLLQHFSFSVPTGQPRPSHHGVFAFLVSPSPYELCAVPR

Cc1ccc(Cl)cc1-n1c(=O)cc(N2CC(C)OC(C)C2)[nH]c1=O (stereo unspecified)
AC50 (Cytochrome P450 2D6): inconclusive | AC50 (Cytochrome P450 2C19): inconclusive

CCOC(=O)c1cnc(-n2nc(C)cc2C)nc1NNc1nc(C)cc(C)n1
IC50 [1]: 66 µM (active) | EC50 [2]: 21.3 µM (active) | EC50 [3]: 8.43 µM (active) | EC50 [4]: > 300 µM (inconclusive) | EC50 [5]: 21.4 µM (active) | EC50 [6]: 65.5 µM (active)

O=c1c2ccccc2sn1-c1ccccc1
CC50 [7]: 13.4 µM (active) | IC50 [8]: > 66 µM (inactive) | IC50 (Hexokinase): 1.11 µM (active) | IC50 [9]: 8.87 µM (active) | IC50 [10]: 0.941 µM (active) | IC50 [11]: 21 µM (active) | IC50 (Beta Lactamase): 16.6 µM (inactive) | IC50 [12]: 6.4 µM (active) | IC50 [13]: 20.1 µM (active) | EC50 [14]: 79.3 µM (inactive) | CC50 [15]: 10.9 µM (active) | EC50 [16]: 41.1 µM (active) | EC50 [17]: 0.888 µM (active) | EC50 (Streptococcus): 4.17 µM (active) | EC50 (Streptokinase A): > 150 µM (not active) | IC50 [18]: > 100 µM (inactive) | IC50 [19]: 4 µM (active) | EC50 [20]: 0.227 µM (active) | IC50 (cells): 15.7 µM (active) | IC50 [21]: 6.65 µM (active) | AC50 [22]: 18.7 µM (active) | IC50 [23]: > 66 µM (inactive) | EC50 [24]: 22.6 µM (active)
